Test systems include IGROV1 ovarian; M14 melanoma; SK-MEL-28 melanoma; DMS 114 small cell lung; EKVX NSCLC; MCF7 breast; SNB-78 CNS; RXF 393 renal; TK-10 renal; MDA-MB-231 breast.
Holding throughout (experiment): NCI tumour cell line growth inhibition, 48 h

The structures appear in SMILES notation. Where “and” joins values, the source holds several entries; their conditions need not be identical. Equal values may be shown once.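 Grown in 96-well plates, cells were treated for 48 hours with each compound at five concentrations. Insufficient inhibition: endpoint recorded as highest concentration tested. At the GI50, growth is halved. TGI marks complete inhibition of growth.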

In the case of `Cc1cc(-c2c(F)cc3c4nn([C@H]5CC[C@@H](N(C)C)CC5)c(=O)c-4cn(C4CC4)c3c2F)cc(C)n1`, the GI50 was 0.278 µM in the experiment on IGROV1 ovarian; 0.0539 µM in the experiment on M14 melanoma; 0.0689 µM with SK-MEL-28 melanoma; 0.111 µM in the experiment on DMS 114 small cell lung; 0.669 µM with SNB-78 CNS. The TGI with SK-MEL-28 melanoma is 0.368 µM and 3.34 µM; in the experiment with DMS 114 small cell lung, 0.124 µM and 0.36 µM; with EKVX NSCLC it was 5.96 µM; in the experiment with MCF7 breast, over 100 µM; in the experiment on SNB-78 CNS, 11.5 µM and 6.93 µM; with RXF 393 renal, 1.39 µM.

On to `CS(=O)(=O)OCCCNCCCOS(C)(=O)=O`, for which the TGI with IGROV1 ovarian is 7300 µM; with M14 melanoma, 5050 µM; with SK-MEL-28 melanoma, 7560 µM; with TK-10 renal it was 6930 µM; in the experiment with DMS 114 small cell lung it was 3630 µM; in the experiment with EKVX NSCLC, 6030 µM. In addition, the TGI in the experiment on MCF7 breast is 5320 µM; with SNB-78 CNS it was 8530 µM; in the experiment with RXF 393 renal it was 5480 µM; in the experiment on MDA-MB-231 breast, 6120 µM.

`O=C(NC(=O)c1c(Cl)nc2sccn12)Nc1ccc(Cl)cc1`: the TGI was over 100 µM in the experiment with IGROV1 ovarian; over 100 µM with M14 melanoma; over 100 µM with SK-MEL-28 melanoma; 89.2 µM in the experiment with TK-10 renal; over 100 µM in the experiment with DMS 114 small cell lung; over 100 µM in the experiment on EKVX NSCLC. The TGI in the experiment on MCF7 breast is over 100 µM; in the experiment with SNB-78 CNS, over 100 µM; in the experiment with RXF 393 renal, 76.2 µM; with MDA-MB-231 breast, 68.5 µM.

On to `COCCOc1cc(C)cc(/C=C(C)/C=C/C2=C(C)CCCC2(C)C)n1`, for which the TGI with IGROV1 ovarian, with M14 melanoma, in the experiment on SK-MEL-28 melanoma, in the experiment on TK-10 renal, with DMS 114 small cell lung and with EKVX NSCLC was over 100 µM throughout. Further, the TGI in the experiment with SNB-78 CNS and in the experiment with RXF 393 renal was over 100 µM each time.

Take `Cc1ccc2nc(NC(=O)C(=O)C(C#N)c3ccc(Cl)cc3)sc2c1` (centres undefined): the TGI in the experiment with IGROV1 ovarian, in the experiment on M14 melanoma, with SK-MEL-28 melanoma, with TK-10 renal, in the experiment on DMS 114 small cell lung and in the experiment on EKVX NSCLC was over 50 µM throughout. Further, the TGI with SNB-78 CNS and in the experiment with RXF 393 renal was over 50 µM each time.

On to `CCC[CH2][Sn]([CH2]CCC)([S]C#N)[S]C#N`, for which the GI50 in the experiment on IGROV1 ovarian was 1.27 µM; in the experiment with M14 melanoma it was 1.49 µM; in the experiment on SK-MEL-28 melanoma, 0.753 µM; in the experiment on TK-10 renal it was 1.11 µM; in the experiment on DMS 114 small cell lung it was 0.506 µM; in the experiment with EKVX NSCLC, 1.36 µM. Besides, the GI50 was 0.663 µM in the experiment on SNB-78 CNS and 0.342 µM with RXF 393 renal. Further, the TGI in the experiment on IGROV1 ovarian is 2.78 µM; in the experiment on M14 melanoma it was 3.48 µM; in the experiment on SK-MEL-28 melanoma, 2.15 µM; in the experiment with TK-10 renal, 2.4 µM; in the experiment with DMS 114 small cell lung, 2.68 µM; in the experiment on EKVX NSCLC, 2.99 µM. Besides, the values for the TGI with SNB-78 CNS and in the experiment on RXF 393 renal were 2.51 µM and 1.33 µM, respectively.

With `N#CC(C(=O)CCCC(=O)Nc1ccc(Cl)cc1Cl)c1ccccc1` (centres undefined), the TGI in the experiment with IGROV1 ovarian, in the experiment on M14 melanoma, in the experiment with SK-MEL-28 melanoma, with TK-10 renal, in the experiment on DMS 114 small cell lung and in the experiment with EKVX NSCLC was over 100 µM throughout. Moreover, the TGI in the experiment with SNB-78 CNS and in the experiment with RXF 393 renal was over 100 µM in each case.

With `CCOC(=O)c1cc(-c2ccc(-c3cc(C(=O)OCC)c(C#N)c(N)c3C#N)cc2)c(C#N)c(N)c1C#N`, the TGI in the experiment with IGROV1 ovarian, with M14 melanoma, with SK-MEL-28 melanoma, with TK-10 renal, in the experiment with DMS 114 small cell lung and in the experiment with EKVX NSCLC was over 100 µM in each case. The TGI in the experiment with SNB-78 CNS and with RXF 393 renal was over 100 µM in each case.

These data come from PubChem BioAssay (NCI).
